The source of these data is EP0414894A1 (priority 1989, dated 1990).

For data set [1] the following is noted: mice and rats; cited from earlier work.
A further data set concerns domestic flies. Description: insecticidal activity, full-scale (large-scale) test in premises. The note with it: 2% solution, 2-3 dishes per 20 m²; 72 hours. The format is in vivo. The protocol:
The full-scale tests for activity of the insecticidal composition of the invention to domestic flies in habitable and industrial premises were carried out as follows. The Petri dishes containing a 2% solution of the insecticidal composition of the invention were located according 2-3-dishes per 20 m². The composition activity was evaluated by a direct estimation of killed insects in 72 hours or by using an adhesive tape to count the number of flies on its surface prior to and after conducting the test.

In the case of `COP(=O)(OC)C(O)C(Cl)(Cl)Cl` (centres unmarked) [0,0-dimethyl/1-hydroxy-2,2,2,-trichloroethyl/-phosphonate, reference compound], in data set [1], the LD₅₀ is 225 to 1200 mg/kg. The “Death of flies, % Tests in large-scale” value in the data set on domestic flies came out at 88.0%.
